The target of this assay is SCD1 (Rattus norvegicus (Rat), UniProt P07308). Briefly: SCD1 enzymatic assay in rat liver microsomes (RLM). The assay is classed as biochemical. The settings on record: for inhibition at 1 µM: 1 μM test compound. The procedure:
Step 1: Preparation of Rat Liver Microsome (RLM)
Sprague Dawley rats from Charles River (200-225 g) underwent 2-cycle of fast-re-feeding (24-hour fast followed by 24-hour feeding with fat-free high carbohydrate diet, Research Diet, D00042802). The livers were removed and homogenized 1:4 (w/v) with pre-chilled, homogenizing buffer (10 mM Tris-HCl, 0.25 M sucrose, 1 mM EDTA, pH 7.4, supplemented with protease inhibitor cocktail). The homogenate was spun at 12,000×g for 15 min at 4° C. The supernatant was then re-centrifuged at 100,000×g for 60 min at 4° C. The pellet was re-suspended in 2 ml pre-chilled […] potassium phosphate buffer, pH 7.2, 10 mM EDTA at a concentration of 20 mg/ml. The resulting rat liver microsome (RLM) preparation was stored at […].
Step 2: SCD1 Enzymatic Assay in RLM:
The SCD1 enzymatic assay was done in a volume of 50 μL using 10 μg of RLM (prepared as described above) in a 96-well polypropylene plate (enzyme reaction buffer contains 0.1 M K-Phosphate Buffer, 10 mM ATP, 6 mM MgCl2, 1 mM CoA, 1 mM β-NADH, 1.6 mM L-glutathione, 20 μM Stearoyl-CoA). Stearoyl-[9,10-^3H]—CoA (ARC-0390, 1 mCi/mL, 60 Ci/mmol,) was added at a final concentration of 2 μCi/mL. Test compound was then added to the reaction mixture at the selected concentration. After incubation at room temperature for 2 hours, 5 μL 1 N HCl was added to stop the reaction, followed by addition of 25 μL of 10% charcoal. The reaction mixture was then transferred to 96-well Multiscreen plate (Millipore, Cat# MSFCN6B50). [^3H2O] was collected into Opti-plate (PE, Cat #6005290) by centrifuge, at 1,000 rpm for 2 minutes. 150 μL Microscint 40 (PE, cat #6013641) was then added to each well and counted on Topcount for [^3H] counts per minute (cpm). The measured cpm values were fitted with Sigmoidal dose-response curve fit with Graphpad Prism.

pIC50: −log10 of the molar value.

Chain of SCD1 (P07308 whole entry): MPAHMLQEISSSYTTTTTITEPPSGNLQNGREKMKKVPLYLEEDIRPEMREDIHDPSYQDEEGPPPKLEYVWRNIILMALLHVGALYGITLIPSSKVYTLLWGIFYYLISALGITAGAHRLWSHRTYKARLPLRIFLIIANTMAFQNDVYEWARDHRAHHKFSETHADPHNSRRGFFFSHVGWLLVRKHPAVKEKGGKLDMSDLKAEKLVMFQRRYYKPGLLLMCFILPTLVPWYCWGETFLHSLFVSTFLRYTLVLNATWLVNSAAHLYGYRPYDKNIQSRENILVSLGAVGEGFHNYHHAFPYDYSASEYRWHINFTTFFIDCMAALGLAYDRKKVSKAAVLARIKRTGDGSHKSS

As to `CNC(=O)c1cccc(NC(=O)N2CCC(N3C(=O)Cc4ccccc43)CC2)c1` [Compound 1, N-(3-(methylcarbamoyl)phenyl)-4-(2-oxoindolin-1-yl)piperidine-1-carboxamide], at 1 µM the inhibition was 7%.

`CCCc1nc2ccc(NC(=O)N3CCC(c4noc5ccc(F)cc45)CC3)cc2o1` [Compound 7, 4-(5-fluorobenzo[d]isoxazol-3-yl)-N-(2-propylbenzo[d]oxazol-6-yl)piperidine-1-carboxamide]: the pIC50 – broadly, the negative decadic logarithm of the IC50, by convention in mol/L – is 5.99 and the inhibition (in general, how much of the control response was suppressed) at 1 µM was found to be 55%.

The compound `CCCCc1cc(NC(=O)N2CCC(c3noc4ccc(F)cc34)CC2)ccc1F` [Compound 8, N-(3-butyl-4-fluorophenyl)-4-(5-fluorobenzo[d]isoxazol-3-yl)piperidine-1-carboxamide] showed an inhibition at 1 µM of 12%.

As to `CNC(=O)c1cccc(NC(=O)N2CCC(c3noc4cc(F)ccc34)CC2)c1` [Compound 10, 4-(6-fluorobenzo[d]isoxazol-3-yl)-N-(3-(methylcarbamoyl)phenyl)piperidine-1-carboxamide], the inhibition at 1 µM was 23%.

Compound `Cc1csc(NC(=O)N2CCC(c3noc4cc(F)ccc34)CC2)n1` [Compound 11, 4-(6-fluorobenzo[d]isoxazol-3-yl)-N-(4-methylthiazol-2-yl)piperidine-1-carboxamide] gave an inhibition at 1 µM of 40%.

The compound `CCOC(=O)c1csc(NC(=O)N2CCC(N3CCc4ccc(F)cc43)CC2)n1` [Compound 22, ethyl 2-(4-(6-fluoroindolin-1-yl)piperidine-1-carboxamido)thiazole-4-carboxylate] showed a pIC50 of less than 6.00 and an inhibition at 1 µM of 8%.

Turning to `CNC(=O)c1csc(NC(=O)N2CCC(N3CCc4ccc(F)cc43)CC2)n1` [Compound 23, 2-(4-(6-fluoroindolin-1-yl)piperidine-1-carboxamido)-N-methylthiazole-4-carboxamide], the pIC50 was less than 6.00 and at 1 µM the inhibition was 20%.

For the compound `NC(=O)c1csc(NC(=O)N2CCC(N3CCc4ccc(F)cc43)CC2)n1` [Compound 26, 2-(4-(6-fluoroindolin-1-yl)piperidine-1-carboxamido)thiazole-4-carboxamide], the pIC50 was 6.17 and the inhibition at 1 µM turned out to be 62%.

As to `CNC(=O)Cc1csc(NC(=O)N2CCC(N3CCc4ccc(F)cc43)CC2)n1` [Compound 28, 4-(6-fluoroindolin-1-yl)-N-(4-(2-(methylamino)-2-oxoethyl)thiazol-2-yl)piperidine-1-carboxamide], the pIC50 was less than 6.00 and testing at 1 µM gave an inhibition of 22%.

`NC(=O)Cc1csc(NC(=O)N2CCC(N3CCc4ccc(F)cc43)CC2)n1` [Compound 30, N-(4-(2-amino-2-oxoethyl)thiazol-2-yl)-4-(6-fluoroindolin-1-yl)piperidine-1-carboxamide] showed a pIC50 of 6.07 and an inhibition at 1 µM of 57%.

Compound `O=C(Nc1nc(CN2CCCCC2)cs1)N1CCC(N2CCc3ccc(F)cc32)CC1` [Compound 31, 4-(6-fluoroindolin-1-yl)-N-(4-(piperidin-1-ylmethyl)thiazol-2-yl)piperidine-1-carboxamide] had an inhibition at 1 µM of 44%.

Consider `CC(C)(C)[Si](C)(C)OC1CCc2nc(NC(=O)N3CCC(N4CCc5ccc(F)cc54)CC3)sc2C1` (stereo not shown) [Compound 32, N-(6-((tert-butyldimethylsilyl)oxy)-4,5,6,7-tetrahydrobenzo[d]thiazol-2-yl)-4-(6-fluoroindolin-1-yl)piperidine-1-carboxamide], for which the inhibition at 1 µM amounted to 31%.

The compound `CC(C)(C)OC(=O)N1CCc2nc(NC(=O)N3CCC(N4CCc5ccc(F)cc54)CC3)sc2C1` [Compound 34, tert-butyl 2-(4-(6-fluoroindolin-1-yl)piperidine-1-carboxamido)-6,7-dihydrothiazolo[5,4-c]pyridine-5(4H)-carboxylate] returned an inhibition at 1 µM of 35%.

The compound `CC(=O)N1CCc2nc(NC(=O)N3CCC(N4CCc5ccc(F)cc54)CC3)sc2C1` [Compound 40, N-(5-acetyl-4,5,6,7-tetrahydrothiazolo[5,4-c]pyridin-2-yl)-4-(6-fluoroindolin-1-yl)piperidine-1-carboxamide] had an inhibition at 1 µM of 46%.

Compound `CCOC(=O)c1cccc(NC(=O)N2CCC(N3CCc4ccc(F)cc43)CC2)c1` [Compound 41, ethyl 3-(4-(6-fluoroindolin-1-yl)piperidine-1-carboxamido)benzoate] showed a negative-log IC50 (pIC50) of 6.27 and an inhibition at 1 µM of 53%.

For `CCOC(=O)c1ccc(NC(=O)N2CCC(N3CCc4ccc(F)cc43)CC2)cc1` [Compound 42, ethyl 4-(4-(6-fluoroindolin-1-yl)piperidine-1-carboxamido)benzoate], 1 µM produced 21% inhibition.

As for `O=C(Nc1ccc(CO)cc1)N1CCC(N2CCc3ccc(F)cc32)CC1` [Compound 44, 4-(6-fluoroindolin-1-yl)-N-(4-(hydroxymethyl)phenyl)piperidine-1-carboxamide], testing at 1 µM gave an inhibition of 31%.

`O=C(Nc1ccc2c(c1)CNCC2)N1CCC(N2CCc3ccc(F)cc32)CC1` [Compound 46, 4-(6-fluoroindolin-1-yl)-N-(1,2,3,4-tetrahydroisoquinolin-7-yl)piperidine-1-carboxamide]: the inhibition at 1 µM was determined as 27%.

For `NC(=O)c1cc(NC(=O)N2CCC(N3CCc4ccc(F)cc43)CC2)ccc1CO` [Compound 48, N-(3-carbamoyl-4-(hydroxymethyl)phenyl)-4-(6-fluoroindolin-1-yl)piperidine-1-carboxamide], the pIC50 was 6.04 and the inhibition at 1 µM is 55%.

`COC(=O)Cc1cnc(NC(=O)N2CCC(N3CCc4ccc(F)cc43)CC2)s1` [Compound 49, methyl 2-(2-(4-(6-fluoroindolin-1-yl)piperidine-1-carboxamido)thiazol-5-yl)acetate] yielded an inhibition at 1 µM of 48%.

`CCOC(=O)Cc1csc(NC(=O)N2CCC(c3noc4ccc(F)cc34)CC2)n1` [Compound 51, ethyl 2-(2-(4-(5-fluorobenzo[d]isoxazol-3-yl)piperidine-1-carboxamido)thiazol-4-yl)acetate]: the pIC50 was 6.24 and the inhibition at 1 µM came out at 68%.

The compound `COC(=O)Cc1cnc(NC(=O)N2CCC(c3noc4ccc(F)cc34)CC2)s1` [Compound 52, methyl 2-(2-(4-(5-fluorobenzo[d]isoxazol-3-yl)piperidine-1-carboxamido)thiazol-5-yl)acetate] showed an inhibition at 1 µM of 15%.

In turn, `CCN1CCc2nc(NC(=O)N3CCC(N4CCc5ccc(F)cc54)CC3)sc2C1` [Compound 53, N-(5-ethyl-4,5,6,7-tetrahydrothiazolo[5,4-c]pyridin-2-yl)-4-(6-fluoroindolin-1-yl)piperidine-1-carboxamide] came in with an inhibition at 1 µM of 34%.

On to `CCOC(=O)CN1CCc2nc(NC(=O)N3CCC(N4CCc5ccc(F)cc54)CC3)sc2C1` [Compound 56, ethyl 2-(2-(4-(6-fluoroindolin-1-yl)piperidine-1-carboxamido)-6,7-dihydrothiazolo[5,4-c]pyridin-5(4H)-yl)acetate], for which the inhibition at 1 µM is 42%.

On to `NC(=O)CN1CCc2nc(NC(=O)N3CCC(N4CCc5ccc(F)cc54)CC3)sc2C1` [Compound 57, N-(5-(2-amino-2-oxoethyl)-4,5,6,7-tetrahydrothiazolo[5,4-c]pyridin-2-yl)-4-(6-fluoroindolin-1-yl)piperidine-1-carboxamide], for which the inhibition at 1 µM worked out at 38%.
